Laboratory results reported in the supplement of paper PMC4862054.
“And” between values parts separate entries of the source, which are not always exact repeats. Equal entries are not always repeated.

Columns and labels:
Details in all cases: incubation time: 72 h
CAL-120 [1] = experiment: normalised viability (% of control), CellTiter-Blue; higher = more viable cells (about 100 = DMSO control)
Method in brief: (§1)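 The reported figure is normalised viability at a single listed concentration of the series. Breast cancer cell lines (20 µl suspension) went onto 384-well plates holding compound in 5 µl medium for 72 h. CellTiter-Blue (2.5 µl, 2 h, 37 °C) was read by fluorescence at 560/590 nm, and each plate was scaled to vehicle at 100 and a positive kill control at 0.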

BT-474 [2] = experiment: as above
Method in brief: as §1

MDA-MB-231 [3] = experiment: as above
Method in brief: as §1

CAL-120 [4] = experiment: normalised viability (% of control), CellTiter-Blue; higher = more viable cells (about 100 = DMSO control); remark: listed apart in the source
Procedure: (§2)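 DSRT, CellTiter-Blue viability, 72 h incubation. Signal is normalised to DMSO and benzethonium chloride controls. Value is the normalised response at dose 3.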

MFM-223 [5] = experiment: as above
Procedure: as §2

CAL-51 [6] = experiment: as above
Procedure: as §2

MDA-MB-436 [7] = experiment: as above
Procedure: as §2

MCF-10A = experiment: drug sensitivity score (DSS), CellTiter-Glo (DSS (AUC-based score)); higher = stronger drug effect (viability inhibition or cytotoxicity); extreme values may be limits of the assay
Method in brief: (§3)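 In 384-well plates, compound was laid out at 5 concentrations in 10-fold steps over a 10,000-fold range specific to each compound, and breast cancer cell lines were seeded on top in 20 µl suspension for a 72 h incubation. CellTox Green fluorescence and then CellTiter-Glo luminescence were read, and each plate was normalised to 0.1 % DMSO and a positive kill control. The drug sensitivity score was calculated from the area under the fitted dose-response curve.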

HCC1599 = experiment: as above
Method in brief: as §3

CAL-120 [8] = experiment: as above
Method in brief: as §3

BT-474 [9] = experiment: as above
Method in brief: as §3

MDA-MB-453 = experiment: as above
Method in brief: as §3

CAL-148 = experiment: as above
Method in brief: as §3

MFM-223 [10] = experiment: as above
Method in brief: as §3

HDQ-P1 = experiment: as above
Method in brief: as §3

MDA-MB-468 = experiment: as above
Method in brief: as §3

MDA-MB-231 [11] = experiment: as above
Method in brief: as §3

BT-549 = experiment: as above
Method in brief: as §3

CAL-51 [12] = experiment: as above
Method in brief: as §3

SK-BR-3 = experiment: as above
Method in brief: as §3

HCC1937 = experiment: as above
Method in brief: as §3

CAL-85-1 = experiment: as above
Method in brief: as §3

MDA-MB-436 [13] = experiment: as above
Method in brief: as §3

Hs578T = experiment: as above
Method in brief: as §3

HCC1143 = experiment: as above
Method in brief: as §3

DU-4475 = experiment: as above
Method in brief: as §3

| Compound | normalised viability (CAL-120 [1]; 1000 nM) | normalised viability (BT-474 [2]; 1000 nM) | normalised viability (MDA-MB-231 [3]; 1000 nM) | drug sensitivity score (MCF-10A) | drug sensitivity score (HCC1599) | drug sensitivity score (CAL-120 [8]) | drug sensitivity score (BT-474 [9]) | drug sensitivity score (MDA-MB-453) | drug sensitivity score (CAL-148) | drug sensitivity score (MFM-223 [10]) | drug sensitivity score (HDQ-P1) | drug sensitivity score (MDA-MB-468) | drug sensitivity score (MDA-MB-231 [11]) | drug sensitivity score (BT-549) | drug sensitivity score (CAL-51 [12]) | drug sensitivity score (SK-BR-3) | drug sensitivity score (HCC1937) | drug sensitivity score (CAL-85-1) | drug sensitivity score (MDA-MB-436 [13]) | drug sensitivity score (Hs578T) | also measured |
| --- | --- | --- | --- | --- | --- | --- | --- | --- | --- | --- | --- | --- | --- | --- | --- | --- | --- | --- | --- | --- | --- |
| COc1cc2ncnc(Nc3ccc(F)c(Cl)c3)c2cc1OCCCN1CCOCC1 [Gefitinib] | 76% and 85.9% | 58.7% and 65.5% | 94.6% and 114% | 17.7 | 0 | 0 | 0 | 0 | 2.08 | 0 | 7.21 | 5.4 | 0 | 0 | 0 | 10.1 | 2.45 | 9.09 | 0 | 0 | normalised viability (CAL-120 [1]; 10 nM): 76.8% and 88.1%; normalised viability (CAL-120 [1]; 10000 nM): 60% and 62.1%; normalised viability (BT-474 [2]; 10 nM): 104% and 116%; normalised viability (BT-474 [2]; 10000 nM): 27.3% and 22.7%; normalised viability (MDA-MB-231 [3]; 10 nM): 83.8% and 98.3%; normalised viability (MDA-MB-231 [3]; 10000 nM): 81.1% and 77%; normalised viability (CAL-120 [4]; 100 nM): 81.9% and 92.8%; normalised viability (MFM-223 [5]; 100 nM): 98.7% and 89.5%; normalised viability (CAL-51 [6]; 10 nM): 107%; normalised viability (MDA-MB-436 [7]; 100 nM): 89.9% and 93.7%; drug sensitivity score (HCC1143): 0; drug sensitivity score (DU-4475): 0 |
| CO[C@H]1C[C@@H]2CC[C@@H](C)[C@@](O)(O2)C(=O)C(=O)N2CCCC[C@H]2C(=O)O[C@H]([C@H](C)C[C@@H]2CC[C@@H](OP(C)(C)=O)[C@H](OC)C2)CC(=O)[C@H](C)/C=C(\C)[C@@H](O)[C@@H](OC)C(=O)[C@H](C)C[C@H](C)/C=C/C=C/C=C/1C [Ridaforolimus] | 46.9% | 61.7% | 70.4% | 0 | 0 | 8.4 | 1.18 | 8.14 | 7.53 | 6.61 | 2.99 | 12.7 | 0 | 12.4 | 8.46 | 10.4 | 7.76 | 8.38 | 4.1 | 9.58 | normalised viability (CAL-120 [1]; 1 nM): 70%; normalised viability (CAL-120 [1]; 100 nM): 50%; normalised viability (BT-474 [2]; 1 nM): 75.5%; normalised viability (BT-474 [2]; 100 nM): 63%; normalised viability (MDA-MB-231 [3]; 1 nM): 86.4%; normalised viability (MDA-MB-231 [3]; 100 nM): 81.8%; normalised viability (CAL-120 [4]; 10 nM): 48.2%; normalised viability (MFM-223 [5]; 10 nM): 45.2%; normalised viability (CAL-51 [6]; 1 nM): 79%; normalised viability (MDA-MB-436 [7]; 10 nM): 85.6%; drug sensitivity score (HCC1143): 8.23; drug sensitivity score (DU-4475): 4.31 |
